Tests used:
Format in all cases: cell-based
SNU719 and C666.1 cells [1] = assay: MTS cell viability with HLA-mismatched versus HLA-matched T cells and inhibitors; details: for effect of HLA-matched vs HLA-mismatched T cells in presence of inhibitor: MEK1/2 inhibitors 1 μM, JQ1 2.5 μM, T cells 25:1; for cell viability: 48 hrs
Description: FIG. 12: Combination of MEK1/2 inhibitors with HLA mismatched allogeneic-specific T cells. […] The data are represented as the mean±SD from three independent experiments. P-values were calculated using one-way ANOVA: ns=not significant, *=p<0.05, **=p<0.01, ***=p<0.001 and ****=p<0.0001.
FIG. 16: Combination of JQ1 inhibitors with HLA mismatched all T cells. […] The data are represented as the mean±SD from three independent experiments. P-values were calculated using one-way ANOVA: ns=not significant, *=p<0.05, **=p<0.01, ***=p<0.001 and ****=p<0.0001.
Next, we wanted to determine the specificity of the combination and as such we challenged SNU719 and C666.1 cells with HLA-mismatched allogeneic T cells alongside MEK1/2 inhibitors (both selumetanib and trematinib), individually and in combination.
Next, we wanted to determine the specificity of the combination and as such we challenged SNU719 and C666.1 cells with HLA-mismatch allogeneic T cells alongside JQ1 inhibitor individually and in combination.

SNU719 and C666.1 cells [2] = assay: Xcellegence cell growth curve (Example 3); details: dual combination with HLA matched T cells 25:1 vs individual treatment, selumatinib 1 μM, JQ1 2.5 μM
Description: FIG. 11: Impact of dual combination of MEK1/2 inhibitor and HLA matched allogeneic EBV specific T cells. (A) Cell growth curve highlight the rate of cellular proliferation of SNU719 (upper panel) and C666.1 (lower panel) observed in the presence of HLA-matched EBV specific T cells (effector-to-target ratio of 25:1) and selumatinib (1 μM) individually and in combination, measured using Xcellegence. The effect of individual and dual combination on (B) cell proliferation based on Ki67 and (C) cell death based on active Caspase-3 of SNU719 expression (upper panel) and C666.1 (lower panel), performed using flow cytometry. The data are represented as the mean±SD from three independent experiments. P-values were calculated using one-way ANOVA: ns=not significant, *p<0.05, **p<0.01, ***p<0.001 and ****p<0.0001.
FIG. 15: Impact of dual combination of JQ1 inhibitor and HLA matched allogeneic EBV-specific T cells. The cell viability measured by MTS assay highlighting the impact of a HLA-matched EBV specific T cells at the effector-to-target ratio of 25:1 and JQ1 (2.5 μM) in suppressing cellular growth individually and in combination after 48 hrs of incubation with indicated (A) gastric (SNU719, YCCLE1 (upper panel)) and nasopharyngeal cancer cells (C17, C666.1 (lower panel)). […] P-values were calculated using one-way ANOVA: ns=not significant, *p<0.05, **p<0.01, ***p<0.001 and ****p<0.0001. […]

SNU719 cells [3] = assay: MTS cell viability, inhibitor combined with EBV-specific T cells (Example 2); details: combination with EBV-specific T cells (25:1) vs individual treatment, 48 hrs; AZD6244 0.5 μM, trematinib 1.0 μM, JQ1 5.0 μM
Description: Cell viability assay was performed using the CellTiter 96® AQueous one cell viability assay reagent (Promega, WI, USA) for three biological replicates per EBV-associated cancer cell lines in triplicate. Briefly, the cancer cells (target cells) were plated at a density of 5000 cells per well in an overall media volume of 200 μL on a 96-well tissue-culture plate (BD Falcon™). The effector AdE1-LMPpoly transfected T cells were freshly thawed in RPMI-1640 with 10% FCS and 120 IU/mL of recombinant IL-2 at 37° C. and 50% CO2. Post 24 hrs of plating and incubation at 37° C. and 50% CO2, the effector T cells were mixed to the target cells at a gradient ratio of effector to target (E:T) of 5:1-100:1. The exact number of T cells (To) used per E:T ratio (ET) was independently used as control alongside PBS treated target cells (Es) and sole media (M0). After 24 hrs of incubation at 37° C. and 50% CO2, MTS was added to each well (1:100 dilution in media) and was incubated for 1 hour following which the plate was centrifuged at 1,200×g at room temperature for 5 min and absorbance of the mixture at an optical density of 490 nm was measured via a microplate reader. The relative cell viability was calculated using the following formula: […]

[4] = test system: C17, C666.1, SNU719 and YCCLE1 cells; assay: MTS cell viability, inhibitor combined with HLA matched allogeneic EBV-specific T cells (Example 3); details: combination with HLA matched EBV-specific T cells 25:1 vs individual treatment, 48 hrs; MEK1/2 inhibitors 1 μM, JQ1 2.5 μM
Description: The data are represented as the mean±SD from three independent experiments. P-values were calculated using one-way ANOVA: ns=not significant, *=p<0.05, **=p<0.01, ***=p<0.001 and ****=p<0.0001.
The data are represented as the mean±SD from three independent experiments.

SNU719 cells [5] = assay: Annexin V binding assay, inhibitor combined with EBV-specific T cells; details: combination with EBV-specific T cells (25:1) vs individual treatment, 48 hrs; AZD6244 0.5 μM, trematinib 1.0 μM, JQ1 5.0 μM
Description: We treated SNU719 cells (gastric cancer cells) with MEK1/2 inhibitor (AZD6244 (or selumetanib) and trematinib) at concentration of 0.5 μM and 1.0 μM respectively, as individual treatment or in combination with EBV-specific T cells (25:1) as effector to target ratio.
We treated SNU719 cells with JQ1 inhibitor at concentration of 5.0 μM, as individual treatment or in combination with EBV-specific T cells (25:1) as effector to target ratio.

[6] = combination with HLA-mismatch allogeneic T cells 25:1 vs DMSO treated control
[7] = combination with HLA-mismatch allogeneic T cells 25:1 vs inhibitor alone

SMILES | effect of HLA-matched vs HLA-mismatched T cells in presence of inhibitor (SNU719 and C666.1 cells [1]) | cell viability (SNU719 and C666.1 cells [1]; [6]) | cell viability (SNU719 and C666.1 cells [1]; [7]) | rate of cell death (Xcellegence) (SNU719 and C666.1 cells [2]) | cell viability of SNU719 (SNU719 cells [3]) | cell viability [4] | binding of Annexin V among SNU719 cells (SNU719 cells [5])
Cc1sc2c(c1C)C(c1ccc(Cl)cc1)=N[C@@H](CC(=O)OC(C)(C)C)c1nnc(C)n1-2 [JQ1] | significantly amplified | significant reduction in cell viability | no significant reduction in cell viability | faster cell death | significantly reduced | significantly reduced | significantly higher binding of Annexin V
Cn1cnc2c(F)c(Nc3ccc(Br)cc3Cl)c(C(=O)NOCCO)cc21 [selumetanib] | significantly amplified | significant reduction in cell viability | no significant reduction in cell viability | faster cell death | significantly reduced | significantly reduced | significantly higher binding of Annexin V
